Measurements published in ChEMBL document CHEMBL5729210, “Benzodiazepine derivatives as RSV inhibitors” (2022).

assay: RSV-A Assay: The description is Japanese.

Compound	EC50
O=C1Nc2ccccc2C(c2ccccc2)=NC1Nc1nnc(-c2ccccc2OC2CCOCC2)o1 (configuration not stated)	> 800 nM
O=C1Nc2ccccc2C(c2ccccc2)=NC1Nc1nnc(-c2cnccn2)o1 (configuration not stated)	> 800 nM
N#Cc1ccc(-c2nnc(N[C@H]3N=C(c4ccccc4)c4ccccc4NC3=O)o2)c(N2CCOCC2)c1	< 400 nM
O=C1Nc2ccccc2C(c2ccccc2)=N[C@@H]1Nc1nnc(-c2nc(C(F)(F)F)sc2N2CCOCC2)o1	< 400 nM
O=C1Nc2ccccc2C(c2ccccc2)=N[C@@H]1Nc1nnc(-c2ncc(C3CC3)cc2N2CCOCC2)o1	< 400 nM
COc1cccc(-c2nnc(NC3N=C(c4ccccc4)c4ccccc4NC3=O)o2)n1 (configuration not stated)	< 400 nM
O=C1Nc2ccccc2C(c2ccccc2)=N[C@@H]1Nc1nnc(-c2cc(C(F)(F)F)sc2N2CCOCC2)o1	< 400 nM
Cc1cc(-c2nnc(NC3N=C(c4ccccc4)c4ccccc4NC3=O)o2)on1 (configuration not stated)	> 800 nM
O=C1Nc2ccccc2C(c2ccccc2)=NC1Nc1nnc(C2(F)CC2)o1 (configuration not stated)	> 800 nM
O=C1Nc2ccccc2C(c2ccccc2)=NC1Nc1nnc([C@@H]2CCCO2)o1 (some centres not stated)	> 800 nM
O=C1Nc2ccccc2C(c2ccccc2)=NC1Nc1nnc(-c2ccc3ccccc3c2)o1 (configuration not stated)	in the range around 600 nM
O=C1Nc2ccccc2C(c2ccccc2)=NC1Nc1nnc(-c2ccccc2N2CCS(=O)(=O)CC2)o1 (configuration not stated)	> 800 nM
COCCOc1ccc(C(=O)OC)cc1	> 800 nM
O=C1Nc2ccccc2C(c2ccccc2)=N[C@@H]1Nc1nnc(-c2cnc(N3CCOCC3)cn2)o1	> 800 nM
CCOC(=O)c1nc(-c2cnn(C)c2)sc1N1CCOCC1	< 400 nM
O=C1Nc2ccccc2C(c2ccccc2)=NC1Nc1nnc(-c2ccc(-n3cncn3)cc2)o1 (configuration not stated)	in the range around 600 nM
CC1(C)CC(c2nnc(NC3N=C(c4ccccc4)c4ccccc4NC3=O)o2)C1 (configuration not stated)	> 800 nM
O=C1Nc2ccccc2C(c2ccccc2)=NC1Nc1nnc(-c2cccc(F)c2)o1 (configuration not stated)	> 800 nM
O=C1Nc2ccccc2C(c2ccccc2)=NC1Nc1nnc([C@H]2CCCO2)o1 (some centres not stated)	> 800 nM
O=C1Nc2ccccc2C(c2ccccc2)=N[C@@H]1Nc1nnc(-c2nc3ccccc3cc2N2CCOCC2)o1	< 400 nM
O=C1Nc2ccccc2C(c2ccccc2)=N[C@@H]1Nc1nnc(-c2ncc(C(F)(F)F)cc2N2CCC(F)CC2)o1	> 800 nM
O=C1Nc2ccccc2C(c2ccccc2)=NC1Nc1nnc(-c2ccc(-n3cncn3)c(F)c2)o1 (configuration not stated)	in the range around 600 nM
CS(=O)(=O)c1ccc(-c2nnc(NC3N=C(c4ccccc4)c4ccccc4NC3=O)o2)c(N2CCOCC2)c1 (configuration not stated)	> 800 nM

Compound	EC50
C[C@@H]1COCCN1c1ncccc1-c1nnc(NC2N=C(c3ccccc3)c3ccccc3NC2=O)o1 (some centres not stated)	< 400 nM
O=C1Nc2ccccc2C(c2ccccc2)=NC1Nc1nnc(-c2cccnc2N2CCOCC2)o1 (configuration not stated)	< 400 nM
CC1(Nc2nnc(-c3ccc(F)cc3)o2)N=C(c2ccccc2)c2ccccc2NC1=O (configuration not stated)	> 800 nM
Cc1nc(N2CCOCC2)c(-c2nnc(N[C@H]3N=C(c4ccccc4)c4ccccc4NC3=O)o2)cc1C#N	< 400 nM
O=C1Nc2ccccc2C(c2ccccc2)=NC1Nc1nnc(-c2ccncc2)[nH]1 (configuration not stated)	> 800 nM
N#Cc1c[nH]c2cc(-c3nnc(N[C@H]4N=C(c5ccccc5)c5ccccc5NC4=O)o3)ccc12	> 800 nM
Cc1ccc(-c2nnc(N[C@H]3N=C(c4ccccc4)c4ccccc4NC3=O)o2)c(N2CC3CCC(C2)O3)n1	< 400 nM
O=C1Nc2ccccc2C(c2ccccc2)=NC1Nc1nnc(-c2ccc(F)cc2)[nH]1 (configuration not stated)	> 800 nM
O=C1Nc2ccccc2C(c2ccccc2)=NC1Nc1ncc(-c2ccccc2)s1 (configuration not stated)	> 800 nM
O=C1Nc2ccccc2C(c2ccccc2)=NC1Nc1nc(Cl)ns1 (configuration not stated)	> 800 nM
CC1(Nc2cc(C(F)(F)F)cnc2-c2nnc(N[C@H]3N=C(c4ccccc4)c4ccccc4NC3=O)o2)CCOC1 (some centres not stated)	> 800 nM
O=C1Nc2ccccc2C(c2ccccc2)=N[C@@H]1Nc1nnc(-c2ncc(C(F)(F)F)cc2N[C@@H]2CCC[C@@H]2O)o1	in the range around 600 nM
COc1ccc(-c2nnc(N[C@H]3N=C(c4ccccc4)c4ccccc4NC3=O)o2)c(N2CCOCC2)n1	< 400 nM
O=C1Nc2ccccc2C(c2ccccc2)=NC1Nc1nnc(-c2ncc(N3CCOCC3)cc2Cl)o1 (configuration not stated)	> 800 nM
O=C1Nc2ccccc2C(c2ccccc2)=N[C@@H]1Nc1nnc(-c2ncc(C(F)(F)F)cc2NC2COC2)o1	< 400 nM
O=C1Nc2ccccc2C(c2ccccc2)=N[C@@H]1Nc1nnc(-c2nc(-c3cccnc3)sc2N2CCOCC2)o1	< 400 nM
O=C1Nc2ccccc2C(c2ccccc2)=NC1Nc1nnc(-c2cccnc2N2C3CCC2COC3)o1 (configuration not stated)	> 800 nM
C[C@H]1COCCN1c1ncccc1-c1nnc(NC2N=C(c3ccccc3)c3ccccc3NC2=O)o1 (some centres not stated)	> 800 nM
O=C1Nc2ccccc2C(c2ccccc2)=N[C@@H]1Nc1nnc(-c2ncc(C(F)(F)F)cc2N[C@H]2CCC[C@H]2O)o1	in the range around 600 nM
O=C1Nc2ccccc2C(c2ccccc2)=NC1Nc1nnc(C2CC(F)(F)C2)o1 (configuration not stated)	> 800 nM
Cn1cc(-c2nnc(N[C@H]3N=C(c4ccccc4)c4ccccc4NC3=O)o2)c(N2CCOCC2)n1	< 400 nM
CC(C)n1cc(-c2nnc(N[C@H]3N=C(c4ccccc4)c4ccccc4NC3=O)o2)c(N2CCOCC2)n1	< 400 nM
CN1CCN(c2ccc(-c3nnc(NC4N=C(c5ccccc5)c5ccccc5NC4=O)o3)cc2)CC1 (configuration not stated)	> 800 nM

Compound	EC50
CC(C)(O)CNc1cc(C(F)(F)F)cnc1-c1nnc(N[C@H]2N=C(c3ccccc3)c3ccccc3NC2=O)o1	< 400 nM
N#CCCc1nnc(NC2N=C(c3ccccc3)c3ccccc3NC2=O)o1 (configuration not stated)	> 800 nM
O=C1Nc2ccccc2C(c2ccccc2)=N[C@@H]1Nc1nnc(-c2nc(C(F)(F)F)sc2N2CCO[C@H]3C[C@H]32)o1	< 400 nM
N#Cc1cnc(-c2nnc(N[C@H]3N=C(c4ccccc4)c4ccccc4NC3=O)o2)c(N2CC3CCC(C2)O3)c1	< 400 nM
N#Cc1ccc(-c2nnc(NC3N=C(c4ccccc4)c4ccccc4NC3=O)s2)cc1 (configuration not stated)	in the range around 600 nM
N#Cc1ccc(-c2nnc(N[C@H]3N=C(c4ccccc4)c4ccccc4NC3=O)o2)c(N2CC3CCC(C2)O3)c1	< 400 nM
CCOC(=O)c1ccnc2ccc(COC)cc12	> 800 nM
O=C1Nc2ccccc2C(c2ccccc2)=NC1Nc1nnc(-c2ccc(F)nc2)o1 (configuration not stated)	in the range around 600 nM
Cc1ccc(-c2nnc(N[C@H]3N=C(c4ccccc4)c4ccccc4NC3=O)o2)c(N2CCOCC2)n1	< 400 nM
O=C1Nc2ccccc2C(c2ccccc2)=NC1Nc1ncc(-c2ccc(Br)cc2)o1 (configuration not stated)	> 800 nM
O=C1Nc2ccccc2C(c2ccccc2)=NC1Nc1nnc(Cc2ccccc2)o1 (configuration not stated)	> 800 nM
O=C1Nc2ccccc2C(c2ccccc2)=NC1Nc1nnc(-c2ccc(OC(F)(F)F)cc2)o1 (configuration not stated)	> 800 nM
O=C1Nc2ccccc2C(c2ccccc2)=NC1Nc1nnc(-c2ccc(F)cc2F)o1 (configuration not stated)	> 800 nM
CN1CCN(c2cc(C(F)(F)F)cnc2-c2nnc(N[C@H]3N=C(c4ccccc4)c4ccccc4NC3=O)o2)CC1=O	> 800 nM
O=C1Nc2ccccc2C(c2ccccc2)=N[C@@H]1Nc1nnc(-c2ncc(C(F)(F)F)cc2N[C@H]2CCOC2)o1	> 800 nM
O=C1Nc2ccccc2C(c2ccccc2)=N[C@@H]1Nc1nnc(-c2nsnc2N2CCOCC2)o1	< 400 nM
Cc1cc(-c2nnc(NC3N=C(c4ccccc4)c4ccccc4NC3=O)o2)ccc1-n1cncn1 (configuration not stated)	in the range around 600 nM
O=C1Nc2ccccc2C(c2ccccc2)=NC1Nc1nnc(-c2cccnc2N2CCCCC2)o1 (configuration not stated)	> 800 nM
O=C1Nc2ccccc2C(c2ccccc2)=N[C@H]1Nc1nnc(-c2nc(C(F)(F)F)sc2N2CCO[C@H]3C[C@H]32)o1	> 800 nM
COCCn1nccc1-c1nnc(N[C@H]2N=C(c3ccccc3)c3ccccc3NC2=O)o1	> 800 nM
Cc1cccc(-c2nnc(NC3N=C(c4ccccc4)c4ccccc4NC3=O)o2)n1 (configuration not stated)	> 800 nM
CC1(c2nnc(NC3N=C(c4ccccc4)c4ccccc4NC3=O)o2)CC1 (configuration not stated)	> 800 nM
O=C1Nc2ccccc2C(c2ccccc2)=NC1Nc1nnc(CCC(F)(F)F)o1 (configuration not stated)	> 800 nM

Compound	EC50
O=C1Nc2ccccc2C(c2ccccc2)=NC1Nc1cc(N2CCOCC2)ncn1 (configuration not stated)	> 800 nM
O=C1Nc2ccccc2C(c2ccccc2)=N[C@@H]1Nc1nnc(-c2nc(-c3ccccc3)sc2N2CCOCC2)o1	< 400 nM
O=C1Nc2ccccc2C(c2ccccc2)=NC1Nc1nnc(-c2cncs2)o1 (configuration not stated)	> 800 nM
Cn1cnc(-c2nnc(NC3N=C(c4ccccc4)c4ccccc4NC3=O)o2)c1 (configuration not stated)	> 800 nM
O=C1Nc2ccccc2C(c2ccccc2)=NC1Nc1nnc(-c2cccnc2N2CCC(F)CC2)o1 (configuration not stated)	> 800 nM
O=C1Nc2ccccc2C(c2ccccc2)=NC1Nc1nnc([C@@H]2COCCN2)o1 (some centres not stated)	> 800 nM
O=C1Nc2ccccc2C(c2ccccc2)=NC1Nc1nnc(C2CCOCC2)o1 (configuration not stated)	> 800 nM
O=C1Nc2ccccc2C(c2ccccc2)=NC1Nc1nnc(-c2ccc(N3CCOCC3)c(F)c2)o1 (configuration not stated)	> 800 nM
O=C1Nc2ccccc2C(c2ccccc2)=N[C@@H]1Nc1nnc(-c2ncc3ccccc3c2N2CCOCC2)o1	> 800 nM
Cn1ncc(-c2nnc(N[C@H]3N=C(c4ccccc4)c4ccccc4NC3=O)o2)c1N1CCOCC1	> 800 nM
O=C1Nc2ccccc2C(c2ccccc2)=NC1Nc1nnc(-c2ccccc2NCc2ccccn2)o1 (configuration not stated)	> 800 nM
CO[C@H]1CCN(c2ncccc2-c2nnc(NC3N=C(c4ccccc4)c4ccccc4NC3=O)o2)C1 (some centres not stated)	> 800 nM
CCOC(=O)c1ncc(N2CCCC2)cc1N1CCOCC1	< 400 nM
O=C1OCCc2cc(C(F)(F)F)cnc21	> 800 nM
O=C1Nc2ccccc2C(c2ccccc2)=NC1Nc1nc(-c2ccccc2)cs1 (configuration not stated)	> 800 nM
COC(=O)c1sc(Br)cc1N1CCOCC1	< 400 nM
O=C1Nc2ccccc2C(c2ccccc2)=NC1Nc1nnc(-c2nccnc2N2CCOCC2)o1 (configuration not stated)	< 400 nM
N#Cc1ccc(-c2nnc(NC3N=C(c4ccccc4)c4ccccc4NC3=O)o2)nc1 (configuration not stated)	in the range around 600 nM
Cc1ccc(-c2nnc(N[C@H]3N=C(c4ccccc4)c4ccccc4NC3=O)o2)c(N2CCOC[C@H]2C)n1	< 400 nM
COCc1nnc(NC2N=C(c3ccccc3)c3ccccc3NC2=O)o1 (configuration not stated)	> 800 nM
CCOC(=O)c1csc(C(F)(F)C(F)(F)F)n1	< 400 nM
COc1ccc(CN2C(=O)C(NC(=S)NC(=O)c3ccccc3)N=C(c3ccccc3)c3ccccc32)cc1 (configuration not stated)	> 800 nM
COCCOc1ccccc1-c1nnc(NC2N=C(c3ccccc3)c3ccccc3NC2=O)o1 (configuration not stated)	> 800 nM
